Reference: PubChem BioAssay (NCI)
Values joined by “and” are separate entries in the source; they are usually repeats but may differ in a detail not shown here. Identical values can stand only once.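 Five compound concentrations were applied to cells in 96-well plates for 48 hours; endpoints were derived by simple linear interpolation of the resulting dose-response curve. GI50: concentration for 50% inhibition of growth. TGI: concentration producing complete growth inhibition.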

Legend:
Assay in all cases: NCI-60 cell line screen, 48 h
HL-60(TB) leukemia = tested on: HL-60(TB) leukemia
NCI-H522 lung = tested on: NCI-H522 lung
EKVX NSCLC = tested on: EKVX NSCLC
SN12C renal = tested on: SN12C renal
M14 melanoma = tested on: M14 melanoma
SK-MEL-5 melanoma = tested on: SK-MEL-5 melanoma
SW-620 colon = tested on: SW-620 colon
HOP-62 NSCLC = tested on: HOP-62 NSCLC
SNB-75 CNS = tested on: SNB-75 CNS
KM12 colon = tested on: KM12 colon

Compound	GI50 (HL-60(TB) leukemia)	TGI (HL-60(TB) leukemia)	GI50 (NCI-H522 lung)	TGI (NCI-H522 lung)	GI50 (EKVX NSCLC)	TGI (EKVX NSCLC)	GI50 (SN12C renal)	TGI (SN12C renal)	GI50 (M14 melanoma)	TGI (M14 melanoma)	GI50 (SK-MEL-5 melanoma)	TGI (SK-MEL-5 melanoma)	GI50 (SW-620 colon)	TGI (SW-620 colon)	GI50 (HOP-62 NSCLC)	TGI (HOP-62 NSCLC)	GI50 (SNB-75 CNS)	TGI (SNB-75 CNS)	GI50 (KM12 colon)	TGI (KM12 colon)
C=CCn1c2ccccc2c2c3c(c4c5ccccc5n(CC=C)c4c21)C(=O)N(O)C3=O	2.09 µM	4.31 µM	1.09 µM	2.56 µM	6.34 µM	30.6 µM	3.36 µM	13.2 µM	2.31 µM	26.2 µM	1.79 µM	4.1 µM	4.42 µM	29.5 µM	2.49 µM	12.7 µM	3.55 µM	24.2 µM	3.2 µM	18.4 µM
COC(=O)c1c(O)ccc(O)c1C(C(C)=O)C(C)=O	–	> 100 µM	–	> 100 µM	–	> 100 µM	–	> 100 µM	–	> 100 µM	–	> 100 µM	–	> 100 µM	–	> 100 µM	–	> 100 µM	–	> 100 µM
C[P+]1(Cc2ccccc2)CCCC1	–	> 100 µM	–	> 100 µM	–	> 100 µM	–	> 100 µM	–	> 100 µM	–	> 100 µM	–	> 100 µM	–	> 100 µM	–	> 100 µM	–	> 100 µM
c1ccc(-c2[nH]ncc2-c2ccnc(-c3ccc(OCCN4CCOCC4)cc3)c2)nc1	> 25 µM	> 25 µM	> 25 µM	> 25 µM	> 25 µM	> 25 µM	> 25 µM	> 25 µM	> 25 µM	> 25 µM	> 25 µM	> 25 µM	> 25 µM	> 25 µM	> 25 µM	> 25 µM	> 25 µM	> 25 µM	> 25 µM	> 25 µM
O=C(O)CCC(c1ccccc1)(c1ccccc1)c1ccccc1	–	> 90.6 µM	55.3 µM	> 100 µM	–	> 100 µM	–	> 100 µM	–	> 100 µM	–	> 100 µM	–	> 100 µM	–	> 100 µM	> 100 µM	> 100 µM	–	> 100 µM
Cc1cccc(C)c1NC(=O)CCC(=O)NC(N)=NC#N	–	> 100 µM	–	> 100 µM	–	> 100 µM	–	> 100 µM	–	> 100 µM	–	> 100 µM	–	> 100 µM	–	> 100 µM	–	> 100 µM	–	> 100 µM
O=C(/C=C/c1ccccc1)c1cccc2ccccc12	1.49 µM	5.21 µM	2.75 µM	8.41 µM	2.75 µM	12.6 µM	4.29 µM	15.4 µM	2.39 µM	5.19 µM	2.98 µM	11.7 µM	2.42 µM	6 µM	4.25 µM	13.5 µM	2.19 µM	7.27 µM	1.89 µM	3.77 µM
C[C@]12CC[C@H](O[C@@H]3O[C@H](CO[C@@H]4O[C@H](CO)[C@@H](O)[C@H](O)[C@H]4O)[C@@H](O)[C@H](O)[C@H]3O)C[C@@H]1CC[C@@H]1[C@@H]2CC[C@]2(C)[C@@H](C3=CC(=O)OC3)CC[C@]12O	–	54.9 µM	–	46.7 µM	–	40.4 µM	–	65.3 µM	–	62.9 µM	–	8.52 µM	–	> 100 µM	–	31.1 µM	–	> 84.7 µM	–	> 100 µM
CC(=O)[CH-]C(=O)c1ccccc1.CC(=O)[CH-]C(=O)c1ccccc1.Cl.[O-]c1ccnc2ccccc12.[O-]c1ccnc2ccccc12.[Ti+4]	> 100 µM	> 100 µM	> 100 µM	> 100 µM	> 100 µM	> 100 µM	> 100 µM	> 100 µM	> 100 µM	> 100 µM	> 100 µM	> 100 µM	> 100 µM	> 100 µM	> 100 µM	> 100 µM	> 100 µM	> 100 µM	> 100 µM	> 100 µM
CC[C@@H](C)/C=C(C)/C=C/C(=O)c1c(O)c(-c2ccc(OC(=O)[C@@]34CC[C@@](C)(C(=O)O3)C4(C)C)cc2)cn(O)c1=O	0.841 µM	2.4 µM	1.73 µM	> 50 µM	2.81 µM	> 50 µM	2.47 µM	> 50 µM	1.06 µM	2.49 µM	1.4 µM	4.63 µM	2.43 µM	> 50 µM	2.05 µM	> 50 µM	4.34 µM	> 50 µM	3.85 µM	> 50 µM
C#C[C@@]1(O)[C@@H](CO)O[C@@H](n2cc(Br)c3c(Cl)ccnc32)[C@@H]1O	1.03 µM	3.69 µM	3.64 µM	> 100 µM	17.3 µM	> 100 µM	0.59 µM	> 100 µM	17 µM	> 100 µM	39.7 µM	> 100 µM	0.552 µM	> 100 µM	1.31 µM	> 100 µM	0.657 µM	> 39.2 µM	45.2 µM	> 100 µM
O/N=C(\CC(O)(C(F)(F)F)C(F)(F)F)c1cccs1	–	> 10 µM	–	> 10 µM	–	> 10 µM	–	> 10 µM	–	> 10 µM	–	> 10 µM	–	> 10 µM	–	> 10 µM	–	> 10 µM	–	> 10 µM
Cc1cc(O)ccc1C1=NN(c2ccc(S(N)(=O)=O)cc2)C(=O)CC1	1.85 µM and 5 µM	50 µM and > 100 µM	1.12 µM and 2.48 µM	33.5 µM and > 100 µM	3.87 µM and 19.2 µM	50 µM and > 100 µM	6.68 µM and 42.6 µM	50 µM and > 100 µM	2.55 µM and 4.48 µM	50 µM and 81.4 µM	2.1 µM and 6.78 µM	50 µM and > 100 µM	2.34 µM and 8.64 µM	50 µM and > 100 µM	12.8 µM and 25 µM	46 µM and 86.9 µM	2.95 µM and 16.3 µM	21.5 µM and 82.9 µM	2.89 µM and 6.49 µM	50 µM and > 100 µM
Oc1ccc2c(=S)cc(-c3ccc(Br)cc3)oc2c1O	1.66 µM	6.24 µM	1.16 µM	3.88 µM	17.9 µM	56.6 µM	2.61 µM	12.3 µM	2.01 µM	6.56 µM	1.79 µM	3.95 µM	2.6 µM	21.6 µM	1.5 µM	6.73 µM	4.56 µM	> 100 µM	3.35 µM	25.6 µM
CC(=Nc1ccc(N(C)C)cc1)c1ccccc1	–	43.9 µM	–	40.8 µM	–	> 100 µM	–	32.1 µM	–	29.9 µM	–	29.7 µM	–	39.7 µM	–	> 100 µM	–	77.4 µM	–	> 100 µM
